Measured values published in patent US9661848B2, “Substituted 4-cyan-3-(pyridyl)-4-phenylbutanoates, method for the production thereof and uses as herbicides and plant growth regulators” (BAYER CROPSCIENCE AG, priority 2012, dated 2017).

How the values were obtained:
Alopecurus myosuroides = assay: Herbicidal post-emergence action; assay type: in vivo; conditions: post-emergence method; 0.32 kg of active substance per hectare
Protocol: (§1) Seeds of monocotyledonous and dicotyledonous weeds and crop plants were placed in sandy loam in wood-fibre pots, covered with soil and cultivated in a greenhouse under good growth conditions. 2 to 3 weeks after sowing, the test plants were treated at the one-leaf stage, where the compounds (I) according to the invention, formulated in the form of wettable powders (WP), were applied by spraying as aqueous suspension or emulsion at a water application rate of 600 l/ha (converted) with the addition of 0.2% of wetting agent to the green parts of the plants. After the test plants had been kept in the greenhouse under optimum growth conditions for about 3 weeks, the activity of the preparations was rated visually in comparison to untreated controls in per cent (%). For example, 100% activity=the plants have died, 50% herbicidal activity or damage=the plants have been reduced by 50% or the plant mass has been reduced by 50%, 0% activity=like control plants.

Avena fatua = assay: Herbicidal post-emergence action; assay type: in vivo; conditions: post-emergence method; 0.32 kg of active substance per hectare
Protocol: as §1

COC(=O)C[C@@H](c1cncc(F)c1)[C@H](C#N)c1cccc(F)c1 [erythro-2-Ibb732]
activity against Alopecurus myosuroides (Alopecurus myosuroides): 90-100%
activity against Avena fatua (Avena fatua): 90-100%
